Experimental data as given in patent US20220009914A1, “Analogs of Nitrofuran Antibiotics to Combat Resistance” (The Trustees of Indiana University, priority 2020, published 2022).

What was measured:
[1] = test system: Enterococcus faecium strain NCTC 7171 (ATCC #19434); assay: bacterial proliferation assay, E. faecium; format: cell-based; settings: read-out: Bacterial Proliferation EC50 E. faecium
Description: (§1) All compounds were evaluated for inhibiting the proliferation of E. coli and each of the ESKAPE bacteria. Results presented represent the averages of EC50 values obtained from at least four replicates. Evaluating compounds for inhibition of bacterial cell proliferation.
(§2) Growth Media: E. coli were grown with LB medium and all ESKAPE bacteria were grown in Brain Heart Infusion (BHI) medium (Becton, Dickinson and Company), with all liquid cultures supplemented with 25 mg/L Ca^2+ and 12.5 mg/L Mg^2+ to mimic physiological free concentrations of these cations. A 10 mg/mL Ca^2+ stock solution was prepared by dissolving 1.84 g of CaCl2.2H2O in 50 mL of deionized water, and a 10 mg/mL Mg^2+ stock solution was prepared by dissolving 4.18 g of MgCl2.6H2O in 50 mL deionized water—filter sterilized using 0.2 μm cellulose-acetate filters. 2.5 mL of the sterile 10 mg/mL Ca^2+ stock and 1.25 mL of the sterile 10 mg/mL Mg^2+ stock solutions were added per 1 L of autoclaved LB or BHI media to obtain 25 mg/L Ca^2+ and 12.5 mg/L Mg^2+ ions, respectively.
(§3) General Assay Protocol: Stock bacterial cultures were streaked onto LB or BHI agar plates and grown overnight at 37° C. Fresh aliquots of cation supplemented media were inoculated with single bacterial colonies and the cultures were grown overnight at 37° C. with shaking (240 rpm). The following morning, cultures were diluted 10-fold into fresh media and grown at 37° C. until bacteria had reached mid-log phase growth (OD600˜0.4-0.6). The cultures were then diluted into fresh media to achieve final OD600 readings of 0.017. Aliquots of these diluted cultures (30 μL) were added to clear, flat-bottom 384-well polystyrene plates that were previously stamped with 0.5 μL of test compounds in 20 μL of media (yielding initial OD600=0.01 bacterial cultures). All compounds were tested in dose-response with concentration ranges during the proliferation assays from 100 μM to 46 nM (3-fold dilution series). A second set of baseline control plates were prepared analogously, but without any bacteria added, to correct for possible compound absorbance and/or precipitation. […] Plates were then read at 600 nm using a Molecular Devices SpectraMax Plus384 microplate reader. […] Results presented represent the averages of EC50 values obtained from at least four replicates.
(§4) Evaluating analogs for inhibiting the growth of E. coli and the ESKAPE bacteria. Analogs were initially tested for antibacterial efficacy against representative strains of antibiotic-sensitive E. coli and the ESKAPE bacteria. To determine compound efficacy, bacterial proliferation assays were carried out in liquid media culture supplemented with physiological concentrations of free calcium and magnesium cations. For these assays, bacterial cultures (OD600=0.01) were exposed to test compounds in 8-point, 3-fold dilution series (100 μM to 46 nM concentration range), in 384-well plates. After addition of compounds to cultures, the plates were sealed with Breathe-Easy gas permeable membranes and allowed to grow to mid-log phase (OD600˜0.4-0.6), whereupon final OD600 readings were taken to assess for bacterial growth and inhibition.

[2] = test system: Staphylococcus aureus strain Seattle 1945 (ATCC #25923); assay: bacterial proliferation assay, S. aureus; format: cell-based; settings: Staphylococcus aureus, ATCC25923; read-out: Bacterial Proliferation EC50 S. aureus
Description: as §1, §2, §3, §4

[3] = test system: Enterobacter cloacae strain CDC 442-68 (ATCC #13047); assay: bacterial proliferation assay, E. cloacae; format: cell-based; settings: ATCC13047, read-out: Bacterial Proliferation EC50 E. cloacae
Description: as §1, §2, §3, §4

[4] = molecular target: T1, E. coli GroEL/ES (Escherichia coli, UniProt P0A6F5); assay: GroEL/ES-mediated dMDH refolding assay in the presence of E. coli NfsB nitroreductase; format: biochemical
T1 construct: made in house; host or cells: GroEL in NEB 5-alpha E. coli; GroES in E. coli BL21 (DE3)
T1 sequence (P0A6F5 2-548): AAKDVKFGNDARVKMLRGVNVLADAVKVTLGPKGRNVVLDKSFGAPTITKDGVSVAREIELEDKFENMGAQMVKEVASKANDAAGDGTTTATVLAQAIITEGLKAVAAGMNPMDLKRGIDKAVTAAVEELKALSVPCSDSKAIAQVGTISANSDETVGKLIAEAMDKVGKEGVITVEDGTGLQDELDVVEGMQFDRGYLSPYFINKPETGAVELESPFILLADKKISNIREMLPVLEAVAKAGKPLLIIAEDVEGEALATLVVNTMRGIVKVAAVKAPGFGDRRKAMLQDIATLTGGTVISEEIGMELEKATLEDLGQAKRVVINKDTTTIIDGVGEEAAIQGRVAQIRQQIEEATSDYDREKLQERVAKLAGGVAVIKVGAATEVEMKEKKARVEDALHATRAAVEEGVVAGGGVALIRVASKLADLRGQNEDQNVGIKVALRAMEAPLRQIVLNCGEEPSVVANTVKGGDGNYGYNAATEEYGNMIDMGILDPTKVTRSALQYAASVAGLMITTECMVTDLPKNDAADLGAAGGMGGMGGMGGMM
Description: Evaluating compounds for inhibition in the GroEL/ES-mediated dMDH refolding assay and native MDH activity counter-screen in the presence of E. coli NfsB nitroreductase. These assays were performed nearly identically to those mentioned above, but with a couple distinct modifications. For both assays, 10 μg/mL of the E. coli NfsB nitroreductase enzyme (Sigma product #N9284) was added to the initial GroEL/ES-dMDH solution. For the GroEL/ES-dMDH refolding assay, after stamping with compounds, 10 μL of a 2.4 mM NADH solution was added, followed by a 10 minute incubation period at 37° C. to bioactivate the nitrofuran analogs. The remainder of the assay was conducted as in our standard protocol where no NfsB nitroreductase was present. […] For the native MDH activity counter-screen in the presence of E. coli NfsB nitroreductase, the assay was performed as described above for the GroEL/ES-dMDH refolding assay with NfsB; however, compound addition to the assay plates was conducted after the EDTA quench step, followed by a 10 minute incubation period at 37° C. to bioactivate the nitrofuran analogs. […] Results presented represent the averages of IC50 values obtained from at least four replicates in each assay.
Evaluating analogs for inhibiting GroEL/ES-mediated substrate refolding functions in the presence of the E. coli NfsB type-1 nitroreductase. […] However, our standard GroEL/ES-mediated refolding assays and native substrate reporter counter-screens were conducted without nitroreductases present.

[5] = test system: Pseudomonas aeruginosa strain NCTC 10332 (ATCC #10145); assay: bacterial proliferation assay, P. aeruginosa; format: cell-based; settings: read-out: Bacterial Proliferation EC50 P. aeruginosa
Description: as §1, §2, §3, §4

Structure (SMILES)	EC50 [1] [µM]	EC50 [2] [µM]	EC50 [3] [µM]	IC50 [4] [µM]	EC50 [5] [µM]
O=Cc1ccc(O)c2ncccc12 [Compound 40, reference compound]	7.3	19	24	> 83	> 100
COc1ccc(C(=O)N/N=C/c2cccc3ccccc23)cc1 [Compound 33, 4-methoxy-N′-(naphthalen-1-ylmethylene)benzohydrazide]	> 100	> 100	> 100	> 83	> 100
